# Test results reported in article PMC11791199 (Scientific Reports, 2025).
# “Also recorded” adds a separate entry of the source.
# Tests used:
# ClpC1 NTD F80A mutant = ClpC1 NTD F80A mutant (Mycobacterium tuberculosis, UniProt P9WPC9, F80A); format: binding
# ClpC1 NTD K85A mutant = ClpC1 NTD K85A mutant (Mycobacterium tuberculosis, UniProt P9WPC9, K85A); format: binding
compound,measurement,setting,value
"CC1=C[C@@H](/C=C(\Cl)c2ccc(C(=O)O)cc2)[C@]2(C(=O)O)C=C[C@@H](CCOC(=O)c3ccc(NCc4ccccc4)cc3)C[C@@H]2C1 [F5, (2R,4aR,5S,8aR)-2-(2-((4-(benzylamino)benzoyl)oxy)ethyl)-5-((Z)-2-(4-carboxyphenyl)-2-chlorovinyl)-7-methyl-1,5,8,8a-tetrahydronaphthalene-4a(2H)-carboxylic acid]",binding by ITC,ClpC1 NTD F80A mutant,no binding could be observed; also recorded: no binding was observed
same,binding by ITC,ClpC1 NTD K85A mutant,no binding could be observed; also recorded: no binding was observed
